Results on three molecules are retold here after EP4570802A1, “SALT TYPE AND CRYSTAL FORM OF BENZAZEPINE FUSED RING COMPOUND AND USE THEREOF” (SHANGHAI JEYOU PHARMACEUTICAL CO., LTD., priority 2022, dated 2024).

≈ marks a conversion by molar mass, not a printed value. Structures can show the parent of a compound that is named as a salt. Where two headings read alike, the source gives them in different places.

A short description of data set [1]: Stability study (solid state, XRPD characterization after 7 days and 15 days). Type of data set: physicochemical. The settings on record: for Results after 7 days: XRPD characterization after 7 days; for Results after 15 days: XRPD characterization after 15 days. The procedure: Approximately 20 mg of sample was weighed into a weighing bottle and exposed to high temperature (60°C), high humidity (25°C/92.5% RH), light (25°C/4500 Lux), and accelerated (40°C/75% RH) conditions, followed by sampling for XRPD characterization after 7 days and 15 days.
Samples were taken for XRPD characterization after 7 days and 15 days. 62 to 65. […]

The nature of data set [2]: Solubility test in biological media (dynamic solubility in FaSSIF, FeSSIF, FaSSGF; pH of the 24-hour supernatant; XRPD of remaining solid). The conditions noted are these: for Final pH: 24-hour supernatant; for Solubility (mg/mL) 0.5 h: 30 min; for Solubility (mg/mL) 2h: 120 min; for Solubility (mg/mL) 24 h: 1440 min; for XRPD for remaining solid: remaining solid after 24 hours; for solubility at 0.5 h: read-out: Solubility (mg/mL) 0.5 h; for solubility at 24 h: read-out: Solubility (mg/mL) 24 h; for solubility at 2 h: read-out: Solubility (mg/mL) 2h. The class given is physicochemical. The procedure:
Samples of different crystal forms were added to biological media and shaken at a constant temperature of 37°C for 24 hours, followed by sampling at 0.5 hours, 2 hours, and 24 hours, respectively, and the sampled solution was filtered using a 0.22 µm hydrophilic filter membrane. Some of the samples with higher concentrations were appropriately diluted with a diluent, and the signal peak area of the solution was measured by HPLC. Finally, the concentration of the compound in the solution was calculated based on the peak area, the HPLC standard curve of the starting material, and the dilution factor. In addition, the 24-hour supernatant was tested for pH, and the remaining solid was subjected to XRPD testing.

Setting [3] is: FaSSGF, listed as Crystal form S.
[4] abbreviates: FaSSGF, pH 1.6, 37°C, listed as Crystal form S.
The mark [5] stands for this setting: FaSSIF, listed as Crystal form S.
The mark [6] stands for this setting: FaSSIF, pH 6.5, 37°C, listed as Crystal form S.
Setting [7] is: FeSSIF, listed as Crystal form S.
Setting [8] is: FeSSIF, pH 5.0-5.1, 37°C, listed as Crystal form S.
Where [9] appears, read: Water, listed as Crystal form S.
Setting [10] is: FaSSGF, listed as Crystal form N.
Where [11] appears, read: FaSSGF, pH 1.6, 37°C, listed as Crystal form N.
[12] abbreviates: FaSSIF, listed as Crystal form N.
Where [13] appears, read: FaSSIF, pH 6.5, 37°C, listed as Crystal form N.
Where [14] appears, read: FeSSIF, listed as Crystal form N.
Setting [15] is: FeSSIF, pH 5.0-5.1, 37°C, listed as Crystal form N.
The mark [16] stands for this setting: Water, listed as Crystal form N.
[17] abbreviates: FaSSGF, listed as Crystal form C of fumarate.
Where [18] appears, read: FaSSIF, listed as Crystal form C of fumarate.
The mark [19] stands for this setting: FeSSIF, listed as Crystal form C of fumarate.

Consider `O=C(Nc1ccc(C(=O)N2CC[C@@H]3CCN[C@H]3c3cc(Cl)ccc32)cn1)c1ccccc1C(F)(F)F` [crystal form S], for which the “Results after 7 days” value in data set [1] (High temperature, 60°C) is listed as “No change”. For the same molecule, the “Results after 15 days” value in data set [1] (High temperature, 60°C) is “No change”. Also, the “Final pH” value came out at 2.0 in data set [2] (setting [3]), 6.5 in data set [2] (setting [5]), 5.1 in data set [2] (setting [7]) and 7.4 in data set [2] (setting [9]). Also, the “Solubility (mg/mL) 0.5 h” value in data set [2] (setting [4]) was more than 7.19 mg/mL; in data set [2] (setting [6]) it was 0.03 mg/mL (≈ 58.3 µM); in data set [2] (setting [8]), 0.40 mg/mL (≈ 777 µM). Besides, the “Solubility (mg/mL) 2h” value in data set [2] (setting [4]) is listed as more than 7.35 mg/mL; in data set [2] (setting [6]), 0.04 mg/mL (≈ 77.7 µM); in data set [2] (setting [8]) it was 0.44 mg/mL (≈ 854 µM); in data set [2] (Water, 37°C, listed as Crystal form S), 0.001 mg/mL (≈ 1.94 µM). The entries for the “Solubility (mg/mL) 24 h” value in data set [2] (setting [4]), in data set [2] (setting [6]) and in data set [2] (setting [8]) were 2.15 mg/mL (≈ 4180 µM), 0.04 mg/mL (≈ 77.7 µM) and 0.43 mg/mL (≈ 835 µM), respectively. Moreover, the “XRPD for remaining solid” value is on record as “Amorphous*” in data set [2] (setting [3]), “Crystal form S” in data set [2] (setting [5]), “Crystal form S” in data set [2] (setting [7]) and “Crystal form S” in data set [2] (setting [9]).

For the molecule `O=C(Nc1ccc(C(=O)N2CC[C@@H]3CCN[C@H]3c3cc(Cl)ccc32)cn1)c1ccccc1C(F)(F)F` [crystal form N], the “Results after 7 days” value in data set [1] (Accelerated, 40°C/75% RH) is “No change”; in data set [1] (High humidity, 25°C/92.5% RH) it was “No change”; in data set [1] (Light, 25°C/4500 Lux), “No change”. The “Results after 15 days” value is “No change” in data set [1] (Accelerated, 40°C/75% RH); “No change” in data set [1] (High humidity, 25°C/92.5% RH); “No change” in data set [1] (Light, 25°C/4500 Lux). Further, the “Final pH” value in data set [2] (setting [10]) amounted to 2.0; in data set [2] (setting [12]), 6.5; in data set [2] (setting [14]), 5.1; in data set [2] (setting [16]), 7.5. For the same molecule, the results for the “Solubility (mg/mL) 0.5 h” value in data set [2] (setting [11]), in data set [2] (setting [13]) and in data set [2] (setting [15]) were more than 7.61 mg/mL, 0.06 mg/mL (≈ 117 µM) and 0.80 mg/mL (≈ 1550 µM), respectively. For the same molecule, the “Solubility (mg/mL) 2h” value in data set [2] (setting [11]) is more than 7.89 mg/mL; in data set [2] (setting [13]), 0.07 mg/mL (≈ 136 µM); in data set [2] (setting [15]), 0.97 mg/mL (≈ 1880 µM); in data set [2] (Water, 37°C, listed as Crystal form N) it was 0.011 mg/mL (≈ 21.4 µM). Besides, the “Solubility (mg/mL) 24 h” value in data set [2] (setting [11]) is given as more than 7.98 mg/mL; in data set [2] (setting [13]) it was 0.08 mg/mL (≈ 155 µM); in data set [2] (setting [15]) it was 0.94 mg/mL (≈ 1830 µM). Moreover, the “XRPD for remaining solid” value is reported as “No solid” in data set [2] (setting [10]), “Crystal form N” in data set [2] (setting [12]), “Crystal form N” in data set [2] (setting [14]) and “Crystal form N” in data set [2] (setting [16]). Moreover, in data set [2] (water, 37°C), the solubility at 0.5 h was 0.004 mg/mL (≈ 7.77 µM). Moreover, in data set [2] (water, 37°C), the solubility at 24 h was found to be 0.004 mg/mL (≈ 7.77 µM).

Turning to `O=C(Nc1ccc(C(=O)N2CC[C@@H]3CCN[C@H]3c3cc(Cl)ccc32)cn1)c1ccccc1C(F)(F)F` [crystal form C of fumarate], the entries for the “Final pH” value in data set [2] (setting [17]), in data set [2] (setting [18]) and in data set [2] (setting [19]) were 1.7, 6.1 and 5.0, respectively. Also, the solubility at 0.5 h in data set [2] (FaSSGF, pH 1.6, 37°C) was 0.65 mg/mL; in data set [2] (FaSSIF, pH 6.5, 37°C), 0.38 mg/mL; in data set [2] (FeSSIF, pH 5.0-5.1, 37°C), 0.66 mg/mL. Also, the solubility at 2 h came out at 0.7 mg/mL in data set [2] (FaSSGF, pH 1.6, 37°C); 0.35 mg/mL in data set [2] (FaSSIF, pH 6.5, 37°C); 0.74 mg/mL in data set [2] (FeSSIF, pH 5.0-5.1, 37°C). Moreover, the solubility at 24 h in data set [2] (FaSSGF, pH 1.6, 37°C) stood at 0.71 mg/mL; in data set [2] (FaSSIF, pH 6.5, 37°C), 0.28 mg/mL; in data set [2] (FeSSIF, pH 5.0-5.1, 37°C), 0.68 mg/mL. Further, the “XRPD for remaining solid” value is “Obvious change” in data set [2] (setting [17]), “Crystal form C of fumarate + new peak” in data set [2] (setting [18]) and “Crystal form C of fumarate + new peak” in data set [2] (setting [19]).
